Experimental data as given in article PMC13586173, “Synthetic cannabinoid receptor agonists inhibit the cardiac voltage-gated potassium channel hERG” (Acta Pharmacologica Sinica, 2026).
Where two headings read alike, the source gives them in different places.

Experiments:
hERG (KV11.1) = hERG (KV11.1) (Homo sapiens, UniProt Q12809); assay: Automated planar patch-clamp (APC, QPatch II 48), voltage-ladder protocol, CHO cells stably expressing human hERG; details: for hERG channel Efficacy (max reduction in Gmax) Gmin, marked *: * Greatest efficacy achieved with a concentration between 10 and 30 µM (no fit); for hERG channel Efficacy (max reduction in Gmax) Gmin, marked * / hERG channel Efficacy (max reduction in Gmax) Gmin: 1 = no reduction of Gmax; for effect on Gmax of hERG (in words): APC concentration-response, 1.11 to 30 µM; for hERG channel Efficacy (max reduction in Gmax) Gmin: 0 = complete reduction
Sequence of hERG (KV11.1) (Q12809 whole entry): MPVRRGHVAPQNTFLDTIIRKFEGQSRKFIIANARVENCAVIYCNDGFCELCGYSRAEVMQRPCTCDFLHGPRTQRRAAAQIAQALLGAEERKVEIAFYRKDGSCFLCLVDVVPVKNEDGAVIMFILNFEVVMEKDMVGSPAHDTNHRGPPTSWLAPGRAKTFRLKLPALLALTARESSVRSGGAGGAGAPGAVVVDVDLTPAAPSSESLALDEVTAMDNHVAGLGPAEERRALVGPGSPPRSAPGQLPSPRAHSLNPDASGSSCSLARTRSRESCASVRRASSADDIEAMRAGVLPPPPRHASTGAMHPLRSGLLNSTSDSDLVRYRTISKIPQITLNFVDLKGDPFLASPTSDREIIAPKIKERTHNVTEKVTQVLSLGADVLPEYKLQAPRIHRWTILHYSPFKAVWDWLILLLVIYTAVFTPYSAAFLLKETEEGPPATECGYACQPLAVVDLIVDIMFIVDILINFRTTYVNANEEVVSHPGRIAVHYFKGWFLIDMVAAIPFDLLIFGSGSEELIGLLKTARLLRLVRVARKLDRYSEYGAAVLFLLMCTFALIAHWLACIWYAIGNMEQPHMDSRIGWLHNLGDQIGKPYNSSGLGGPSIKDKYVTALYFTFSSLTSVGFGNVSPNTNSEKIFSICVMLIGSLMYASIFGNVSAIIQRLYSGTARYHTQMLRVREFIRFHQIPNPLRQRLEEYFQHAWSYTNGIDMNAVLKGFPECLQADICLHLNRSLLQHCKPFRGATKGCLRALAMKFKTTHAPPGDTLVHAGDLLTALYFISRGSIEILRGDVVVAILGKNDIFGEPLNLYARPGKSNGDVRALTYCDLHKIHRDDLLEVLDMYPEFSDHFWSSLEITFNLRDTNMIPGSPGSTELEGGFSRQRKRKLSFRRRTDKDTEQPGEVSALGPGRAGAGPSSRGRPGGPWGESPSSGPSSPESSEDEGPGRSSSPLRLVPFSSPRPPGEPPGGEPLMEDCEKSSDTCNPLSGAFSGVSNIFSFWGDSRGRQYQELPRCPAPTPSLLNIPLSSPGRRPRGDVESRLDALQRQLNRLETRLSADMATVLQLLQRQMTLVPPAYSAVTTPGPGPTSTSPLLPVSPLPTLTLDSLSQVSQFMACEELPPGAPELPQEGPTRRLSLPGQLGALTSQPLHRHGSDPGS
Excerpt: To assess the effect of a large set of SCRAs on hERG (see SI Table I and SI Fig. S1 for a list of the 36 included SCRAs and corresponding structures), we used the automated planar patch-clamp (APC) technique on mammalian Chinese hamster ovary (CHO) cells stably expressing human hERG. […] We employed a voltage-ladder protocol to obtain information on SCRA effects on the channel’s voltage dependence of activation (V50) and maximal conductance (Gmax) (both determined from Boltzmann fits of the instantaneous tail currents; see Methods for details).
Stably expressing cell lines “CHO-hERG DUO” (here referred to as hERG; gene: KCNH2) and “CHO-KVLQT1/mink” (here referred to as KV7.1/KCNE1; gene: KCNQ1/KCNE1), (B’SYS GmBH, Witterswil, Switzerland) were used to study whole-cell K^+ currents on a QPatch II 48 APC system (Sophion Bioscience A/S, Ballerup, Denmark). Cell culture and passaging were performed in accordance with standard operating procedures. Cells were harvested in serum-free medium with Detachin^TM (Genlantis, CA, USA) immediately prior to experiments. For MPC on transient cell lines, CHO-K1 CCL-61 cells (ATCC, Manassas, VA, USA) were cultured in Ham’s F-12 medium supplemented with 10% fetal bovine serum (FBS) and 100 U/mL penicillin–100 µg/mL streptomycin (Gibco, Thermo Fisher Scientific, Waltham, MA, USA). Transfection was carried out using JetOPTIMUS® reagent (Polyplus, Strasbourg, France) according to the manufacturer’s protocol. Briefly, 80,000 cells were seeded per well in a 12-well plate and transfected with 300 ng of pcDNA3-GFP plasmid, 700 ng of pcDNA3-hERG plasmid with either the wild-type or mutant channels (S624A, S649A, or Y652A), and […] of JetOPTIMUS. After 8 h, cells were detached and reseeded at a density of 30,000 cells per well onto several poly-D-lysine-coated glass coverslips placed in a 12-well plate. For the CB1 receptor activity assay, the AequoScreen® recombinant Chinese hamster ovary (CHO) K1 cell line, stably expressing the human CB1 receptor (ES-110-A), was used (Revvity, Sollentuna, Sweden).
Automated patch-clamp recordings were performed at 22 °C. Freshly harvested cell suspensions (2–3 million cells/mL) were prepared for experiments by the QPatch II 48 automated cell preparation unit. Cells were centrifuged for 150 s at 150 × g and washed twice with the extracellular recording solution. Cells were handled by the integrated pipetting robot and added to the 48 experiment sites on the planar patch-clamp consumable QPlate. Each experiment site contained an individual pair of recording electrodes and a silicon/glass biochip embedded in the flow channels. Single-cell patch recordings (n = 1 is defined as one single-cell patch) and population patch recordings (up to 10 cells per well, n = 1 is defined as one population patch) were performed for hERG and for KV7.1/KCNE1, respectively. Cells were applied, positioned and sealed to the patch holes by a mild suction protocol; whole-cell access was then achieved by a stronger suction pulse.
The intracellular solution contained (in mM): 100 KCl, 4.3 CaCl2, 1.4 MgCl2, 25/10 KOH/EGTA, 24 KF, 10 HEPES, and 4 Mg-ATP (hERG) or 4 Na-ATP (KV7.1/KCNE1). […] The compounds were pre-diluted in DMSO, and the final concentration of DMSO (0.3%) was equal in all recording solutions to control for vehicle effects. The compounds made no contact with plastics following dilution in extracellular solution.
An overview of experimental conditions is provided in SI Table VII, Square voltage pulses in a voltage ladder protocol were used to study current/voltage (I(V)) relationships. Each voltage protocol was first run three times in the presence of vehicle (extracellular solution supplemented with 0.3% DMSO), the 3rd serving as the baseline. Voltage protocols were repeated in the presence of 4 cumulatively rising concentrations of test compound, followed by application of vehicle for recovery.

human CB1 receptor = target: T1, human CB1 receptor (Homo sapiens, UniProt P21554); assay: AequoScreen intracellular calcium release assay, CHO-K1 cells stably expressing CB1; type: cell-based; details: for CB1 receptor Efficacy Emax: normalized to maximum of JWH-018
T1 construct: host or cells: CHO-K1 stably expressing CB1, apoaequorin and Gα16
T1 sequence (P21554 whole entry): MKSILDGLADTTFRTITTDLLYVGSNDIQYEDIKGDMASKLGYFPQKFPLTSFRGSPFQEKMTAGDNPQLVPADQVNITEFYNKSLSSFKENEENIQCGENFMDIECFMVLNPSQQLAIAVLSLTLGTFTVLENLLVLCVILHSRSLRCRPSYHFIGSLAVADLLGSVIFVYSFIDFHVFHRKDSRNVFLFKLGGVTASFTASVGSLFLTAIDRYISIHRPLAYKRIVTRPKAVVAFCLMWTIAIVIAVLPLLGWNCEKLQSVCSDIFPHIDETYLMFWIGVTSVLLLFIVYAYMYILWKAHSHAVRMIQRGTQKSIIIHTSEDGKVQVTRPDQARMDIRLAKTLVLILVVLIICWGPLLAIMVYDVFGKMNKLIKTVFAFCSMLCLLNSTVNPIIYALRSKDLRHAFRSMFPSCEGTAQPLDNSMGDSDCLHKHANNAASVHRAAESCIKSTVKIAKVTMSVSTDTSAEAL

KV7.1/KCNE1 = KV7.1/KCNE1 (Homo sapiens, UniProt P51787); assay: Automated patch-clamp (APC, population patch), CHO cells stably expressing human KV7.1/KCNE1; type: cell-based; details: for KV7.1/KCNE1 channel Efficacy (max reduction in Gmax) Gmin, marked *: * Greatest efficacy achieved with a concentration between 10 and 30 µM (no fit); for KV7.1/KCNE1 channel Efficacy (max reduction in Gmax) Gmin: 1 = no reduction of Gmax, 0 = complete reduction
Sequence of KV7.1/KCNE1 (P51787 whole entry): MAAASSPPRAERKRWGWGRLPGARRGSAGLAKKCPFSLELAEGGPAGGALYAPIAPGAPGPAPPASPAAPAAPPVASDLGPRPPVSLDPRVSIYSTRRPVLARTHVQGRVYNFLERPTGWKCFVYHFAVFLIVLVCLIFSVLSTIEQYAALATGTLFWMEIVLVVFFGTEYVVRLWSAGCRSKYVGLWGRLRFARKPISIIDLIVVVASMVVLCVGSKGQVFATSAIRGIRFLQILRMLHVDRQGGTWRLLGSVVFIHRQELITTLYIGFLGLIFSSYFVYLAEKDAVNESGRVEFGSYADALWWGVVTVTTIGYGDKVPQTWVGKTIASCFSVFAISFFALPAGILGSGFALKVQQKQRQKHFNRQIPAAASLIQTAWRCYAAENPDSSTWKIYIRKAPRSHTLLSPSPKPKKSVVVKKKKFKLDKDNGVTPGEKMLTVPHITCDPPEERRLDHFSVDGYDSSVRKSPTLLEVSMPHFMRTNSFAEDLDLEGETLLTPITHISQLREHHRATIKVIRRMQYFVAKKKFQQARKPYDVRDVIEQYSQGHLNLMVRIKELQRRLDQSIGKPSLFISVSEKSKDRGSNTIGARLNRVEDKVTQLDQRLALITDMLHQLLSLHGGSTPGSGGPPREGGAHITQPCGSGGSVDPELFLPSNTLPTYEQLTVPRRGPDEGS
Method: Both hERG and KV7.1/KCNE1 contribute to cardiomyocyte repolarization (Fig. 1g). Inhibition of KV7.1/KCNE1 alone can be proarrhythmic. Moreover, under conditions with impaired hERG function, upregulation of KV7.1/KCNE1 has been proposed to partially compensate for the loss of hERG [38, 39]. […] To assess if SCRAs also affect KV7.1/KCNE1, we used mammalian CHO cells stably expressing human KV7.1/KCNE1. […] At 10 µM, 7 of the SCRAs caused a significant positive shift in V50 (Fig. 5e), with the largest shift induced by MDMB-[…] (ΔV50 = +10.3 ± 1.6 mV).
Automated patch-clamp recordings were performed at 22 °C.
For the KV7.1/KCNE1 voltage ladder protocol (SI Table VII) the solutions were present for 60 s before recording started. KV7.1/KCNE1 cells were kept at a holding voltage of −90 mV, with brief hyperpolarizing steps to −100 mV for 540 ms (to calculate ohmic leakage). […] The time between compound application and the first voltage protocol was 60 s. Time between sweeps was 15 s. The voltage ladder protocol was executed every 220 s.
For Gmax (rel.), N was set to –1. For ΔV50, N was set to 1.

[1] = normalized to median EC50 of JWH-018, n ≥ 3 (JWH-030 n = 2), read-out: CB1 receptor Potency EC50
[2] = CB1 receptor Potency EC50, normalized to median EC50 of JWH-018, n ≥ 3 (JWH-030 n = 2)
[3] = read-out: hERG channel Potency IC50 (Gmax reduction), APC, 22 °C, best fit

| Compound | effect on Gmax of hERG (in words) (hERG (KV11.1)) | CB1 receptor Efficacy Emax (human CB1 receptor; n ≥ 3 (JWH-030 n = 2)) | EC50 (human CB1 receptor; [1]) | KV7.1/KCNE1 channel Efficacy (max reduction in Gmax) Gmin, marked * (KV7.1/KCNE1) | hERG channel Efficacy (max reduction in Gmax) Gmin (hERG (KV11.1); best fit, APC, 22 °C) | IC50 (hERG (KV11.1); [3]) | other results |
| --- | --- | --- | --- | --- | --- | --- | --- |
| CCCCCn1nc(C(=O)NC23CC4CC(CC(C4)C2)C3)c2ccccc21 [APINACA] | non-inhibitor | 108 % JWH-018 | 30.4 nM | 0.88 | – | – | hERG channel Efficacy (max reduction in Gmax) Gmin, marked * (hERG (KV11.1)): 0.90 |
| C=CCCCN1C(=O)/C(=N\NC(=O)c2ccccc2)c2ccccc21 [BZO-4en-POXIZID] | concentration-dependent inhibitory effects on Gmax | 112 % JWH-018 | – | 0.79 | 0.64 | – | IC50 (hERG (KV11.1)): 3900 nM; EC50 (human CB1 receptor; [2]): 1700 nM |
| CCCCCCN1C(=O)C(=NNC(=O)c2ccccc2)c2ccccc21 [BZO-HEXOXIZID] | – | 84.3 % JWH-018 | 5130 nM | – | – | – | hERG channel Efficacy (max reduction in Gmax) Gmin, marked ? (hERG (KV11.1); ? Unreliable values (fit failed QC, extrapolated)): 0.00; CB1 EC50 (in words) (human CB1 receptor): low micromolar; IC50 (KV7.1/KCNE1; APC, best fit, read-out: KV7.1/KCNE1 channel Potency IC50 (Gmax reduction)): 3000 nM; KV7.1/KCNE1 channel Efficacy (max reduction in Gmax) Gmin (KV7.1/KCNE1; best fit): 0.44 |
| CCCCCN1C(=O)/C(=N\NC(=O)c2ccccc2)c2ccccc21 [BZO-POXIZID] | non-inhibitor | 108 % JWH-018 | – | 0.83 | – | – | hERG channel Efficacy (max reduction in Gmax) Gmin, marked * (hERG (KV11.1)): 0.79; EC50 (human CB1 receptor; [2]): 349 nM |
| N#CCCCCn1nc(C(=O)NCc2ccccc2)c2ccccc21 [Benzyl-4CN-BUTINACA] | – | 109 % JWH-018 | 408 nM | 0.73 | 0.00 | 17300 nM | – |
| Cc1ccc(S(=O)(=O)n2nc(C(=O)NC(C)(C)c3ccccc3)c3ccccc32)cc1 [Cumyl-TsINACA] | non-inhibitor | 106 % JWH-018 | – | 1.07 | – | – | hERG channel Efficacy (max reduction in Gmax) Gmin, marked * (hERG (KV11.1)): 0.94; EC50 (human CB1 receptor; read-out: CB1 receptor Potency EC50): 166 nM |
| CCCCCn1cc(C(=O)c2cccc3ccccc23)c2ccccc21 [JWH-018] | – | 100 % JWH-018 | – | 1.01 | 0.57 | – | IC50 (hERG (KV11.1)): 17300 nM; EC50 (human CB1 receptor; [2]): 35 nM; EC50 (human CB1 receptor; median CB1 EC50 value, median from 139 independent experiments run over many years): 35 nM; EC50 (human CB1 receptor; variability of CB1 EC50 over time, range over 139 independent experiments): 13.7 to 51.9 nM |
| CCCCCn1cc(C(=O)c2ccc(C)c3ccccc23)c2ccccc21 [JWH-122] | – | 105 % JWH-018 | 8.29 nM | 0.87 | 0.73 | 9400 nM | – |
| CCCCCn1cc(C(=O)c2ccc(CC)c3ccccc23)c2ccccc21 [JWH-210] | – | 110 % JWH-018 | 10.1 nM | – | – | – | hERG channel Efficacy (max reduction in Gmax) Gmin, marked * (hERG (KV11.1)): 0.89; KV7.1/KCNE1 channel Efficacy (max reduction in Gmax) Gmin (KV7.1/KCNE1; best fit): 0 |
| C=CCCCn1nc(C(=O)N[C@H](C(=O)OC)C(C)(C)C)c2ccccc21 [MDMB-4en-PINACA] | – | 109 % JWH-018 | 16.7 nM | 0.57 | 0.27 | 14600 nM | – |
| CCCCn1nc(C(=O)NC(C(=O)OC)C(C)(C)C)c2cc(Br)ccc21 (stereo not drawn) [MDMB-5'Br-BUTINACA] | – | 114 % JWH-018 | – | 0.60 | 0.67 | – | IC50 (hERG (KV11.1)): 6200 nM; effect on KV7.1/KCNE1 (in words) (KV7.1/KCNE1; APC): both reduced Gmax and shifted V50 towards more positive voltages |
| COC(=O)[C@@H](NC(=O)c1n[nH]c2ccc(Br)cc12)C(C)(C)C [MDMB-5'Br-INACA] | – | 110 % JWH-018 | 849 nM | 0.74 | 0.57 | 25300 nM | – |
| COC(=O)C(NC(=O)c1cn(CC2CCCCC2)c2ccccc12)C(C)(C)C (stereo not drawn) [MDMB-CHMICA] | clear inhibiting Gmax effects on hERG | 107 % JWH-018 | – | 0.78 | 0.55 | – | IC50 (hERG (KV11.1)): 3200 nM; EC50 (human CB1 receptor; [2]): 3.07 nM |
| COC(=O)[C@@H](NC(=O)c1nn(Cc2ccc(F)cc2)c2ccccc12)C(C)(C)C [MDMB-FUBINACA] | – | 103 % JWH-018 | 0.795 nM | 0.59 | 0.25 | 10200 nM | CB1 EC50 (in words) (human CB1 receptor): sub-nanomolar |
